Experimental data published in PMC4468608, “A distinct p53 target gene set predicts for response to the selective p53–HDM2 inhibitor NVP-CGM097” (eLife, 2015).

Test system: cell lines from the Cancer Cell Line Encyclopedia (CCLE)
Experiment: High-throughput cell viability assay, CCLE cell line panel (n = 356)
Assay type: cell-based, human
Description: Cell lines were partitioned into sensitive and insensitive groups based on compound potency (IC50). […] All other cell lines were obtained from ATCC (American Type Culture Collection), DSMZ (Deutsche Sammlung von Mikroorganismen und Zellkulturen), and HSRRB (Health Science Research Resources Bank) and cultured in RPMI or Dulbecco's modified Eagle's medium plus 10% FBS (Invitrogen, Carlsbad, CA) at 37°C, 5% CO2.

COc1cc2c(cc1OC(C)C)[C@H](c1ccc(Cl)cc1)N(c1ccc(N(C)C[C@H]3CC[C@H](N4CCNC(=O)C4)CC3)cc1)C(=O)C2 [NVP-CFC218]
Amax (42-MG-BA, TP53 MUT): -30.94%
sensitivity call (42-MG-BA, TP53 MUT): insensitive (Sensitivity call for each compound was applied according to a cut-off of 4 µM for IC50 and -50% for Amax)
share of sensitive cells expressing wild-type p53 (43/47): 91.5%
share of p53 wild-type cell lines scored insensitive (57/100 p53 wild-type cell lines): 57%
number of insensitive cell lines in wider cell line compendium (634 cell lines): 557
number of sensitive cell lines in wider cell line compendium (634 cell lines): 77
Amax (697, TP53 WT): -96.96%
sensitivity call (697, TP53 WT): sensitive (Sensitivity call for each compound was applied according to a cut-off of 4 µM for IC50 and -50% for Amax)
Amax (8505C, TP53 MUT): -28.72%
sensitivity call (8505C, TP53 MUT): insensitive (Sensitivity call for each compound was applied according to a cut-off of 4 µM for IC50 and -50% for Amax)
Amax (AN3 CA, TP53 MUT): 5.06%
sensitivity call (AN3 CA, TP53 MUT): insensitive (Sensitivity call for each compound was applied according to a cut-off of 4 µM for IC50 and -50% for Amax)
Amax (B-CPAP, TP53 MUT): 1.71%
sensitivity call (B-CPAP, TP53 MUT): insensitive (Sensitivity call for each compound was applied according to a cut-off of 4 µM for IC50 and -50% for Amax)
Amax (BEN, TP53 MUT): 0.13%
sensitivity call (BEN, TP53 MUT): insensitive (Sensitivity call for each compound was applied according to a cut-off of 4 µM for IC50 and -50% for Amax)
Amax (BFTC-905, TP53 MUT): 0.25%
sensitivity call (BFTC-905, TP53 MUT): insensitive (Sensitivity call for each compound was applied according to a cut-off of 4 µM for IC50 and -50% for Amax)
Amax (BFTC-909, TP53 MUT): 1.37%
sensitivity call (BFTC-909, TP53 MUT): insensitive (Sensitivity call for each compound was applied according to a cut-off of 4 µM for IC50 and -50% for Amax)
Amax (BT-20, TP53 MUT): 1.40%
sensitivity call (BT-20, TP53 MUT): insensitive (Sensitivity call for each compound was applied according to a cut-off of 4 µM for IC50 and -50% for Amax)
Amax (BT-474, TP53 MUT): -3.44%
sensitivity call (BT-474, TP53 MUT): insensitive (Sensitivity call for each compound was applied according to a cut-off of 4 µM for IC50 and -50% for Amax)
Amax (CAL-12T, TP53 MUT): -18.61%
sensitivity call (CAL-12T, TP53 MUT): insensitive (Sensitivity call for each compound was applied according to a cut-off of 4 µM for IC50 and -50% for Amax)
Amax (CAL-78, TP53 MUT): -1.01%
sensitivity call (CAL-78, TP53 MUT): insensitive (Sensitivity call for each compound was applied according to a cut-off of 4 µM for IC50 and -50% for Amax)
Amax (CHL-1, TP53 MUT): -46.61%
sensitivity call (CHL-1, TP53 MUT): insensitive (Sensitivity call for each compound was applied according to a cut-off of 4 µM for IC50 and -50% for Amax)
Amax (CHP-212, TP53 WT): -71.98%
sensitivity call (CHP-212, TP53 WT): sensitive (Sensitivity call for each compound was applied according to a cut-off of 4 µM for IC50 and -50% for Amax)
Amax (COLO 205, TP53 MUT): -1.62%
sensitivity call (COLO 205, TP53 MUT): insensitive (Sensitivity call for each compound was applied according to a cut-off of 4 µM for IC50 and -50% for Amax)
Amax (COLO 792, TP53 WT): 2.74%
sensitivity call (COLO 792, TP53 WT): insensitive (Sensitivity call for each compound was applied according to a cut-off of 4 µM for IC50 and -50% for Amax)
Amax (COR-L23, TP53 WT): -1.38%
sensitivity call (COR-L23, TP53 WT): insensitive (Sensitivity call for each compound was applied according to a cut-off of 4 µM for IC50 and -50% for Amax)
Amax (Capan-1, TP53 MUT): 30.74%
sensitivity call (Capan-1, TP53 MUT): insensitive (Sensitivity call for each compound was applied according to a cut-off of 4 µM for IC50 and -50% for Amax)
Amax (ChaGo-K-1, TP53 MUT): -18.45%
sensitivity call (ChaGo-K-1, TP53 MUT): insensitive (Sensitivity call for each compound was applied according to a cut-off of 4 µM for IC50 and -50% for Amax)
Amax (DMS 53, TP53 MUT): 9.69%
sensitivity call (DMS 53, TP53 MUT): insensitive (Sensitivity call for each compound was applied according to a cut-off of 4 µM for IC50 and -50% for Amax)
Amax (DU 145, TP53 MUT): -4.91%
sensitivity call (DU 145, TP53 MUT): insensitive (Sensitivity call for each compound was applied according to a cut-off of 4 µM for IC50 and -50% for Amax)
Amax (Daoy, TP53 MUT): 2.94%
sensitivity call (Daoy, TP53 MUT): insensitive (Sensitivity call for each compound was applied according to a cut-off of 4 µM for IC50 and -50% for Amax)
Amax (EB2, TP53 MUT): -5.89%
sensitivity call (EB2, TP53 MUT): insensitive (Sensitivity call for each compound was applied according to a cut-off of 4 µM for IC50 and -50% for Amax)
Amax (EFE-184, TP53 MUT): -2.73%
sensitivity call (EFE-184, TP53 MUT): insensitive (Sensitivity call for each compound was applied according to a cut-off of 4 µM for IC50 and -50% for Amax)
Amax (EFO-21, TP53 MUT): 5.85%
sensitivity call (EFO-21, TP53 MUT): insensitive (Sensitivity call for each compound was applied according to a cut-off of 4 µM for IC50 and -50% for Amax)
Amax (FU-OV-1, TP53 MUT): -2.32%
sensitivity call (FU-OV-1, TP53 MUT): insensitive (Sensitivity call for each compound was applied according to a cut-off of 4 µM for IC50 and -50% for Amax)
Amax (FaDu, TP53 MUT): 8.93%
sensitivity call (FaDu, TP53 MUT): insensitive (Sensitivity call for each compound was applied according to a cut-off of 4 µM for IC50 and -50% for Amax)
Amax (G-401, TP53 WT): -87.03%
sensitivity call (G-401, TP53 WT): sensitive (Sensitivity call for each compound was applied according to a cut-off of 4 µM for IC50 and -50% for Amax)
Amax (GI-1, TP53 MUT): -2.97%
sensitivity call (GI-1, TP53 MUT): insensitive (Sensitivity call for each compound was applied according to a cut-off of 4 µM for IC50 and -50% for Amax)
Amax (GMS-10, TP53 MUT): -4.00%
sensitivity call (GMS-10, TP53 MUT): insensitive (Sensitivity call for each compound was applied according to a cut-off of 4 µM for IC50 and -50% for Amax)
Amax (HCC1806, TP53 MUT): 1.11%
sensitivity call (HCC1806, TP53 MUT): insensitive (Sensitivity call for each compound was applied according to a cut-off of 4 µM for IC50 and -50% for Amax)
Amax (HCC1954, TP53 MUT): -0.81%
sensitivity call (HCC1954, TP53 MUT): insensitive (Sensitivity call for each compound was applied according to a cut-off of 4 µM for IC50 and -50% for Amax)
Amax (HCC-15, TP53 MUT): -21.49%
sensitivity call (HCC-15, TP53 MUT): insensitive (Sensitivity call for each compound was applied according to a cut-off of 4 µM for IC50 and -50% for Amax)
Amax (HCT-15, TP53 MUT): -20.00%
sensitivity call (HCT-15, TP53 MUT): insensitive (Sensitivity call for each compound was applied according to a cut-off of 4 µM for IC50 and -50% for Amax)
Amax (HLF, TP53 MUT): -3.09%
sensitivity call (HLF, TP53 MUT): insensitive (Sensitivity call for each compound was applied according to a cut-off of 4 µM for IC50 and -50% for Amax)
Amax (HMC-1-8, TP53 MUT): -1.67%
sensitivity call (HMC-1-8, TP53 MUT): insensitive (Sensitivity call for each compound was applied according to a cut-off of 4 µM for IC50 and -50% for Amax)
Amax (Hep G2, TP53 WT): -62.73%
sensitivity call (Hep G2, TP53 WT): sensitive (Sensitivity call for each compound was applied according to a cut-off of 4 µM for IC50 and -50% for Amax)
IC50 (Homo sapiens, 8-MG-BA, TP53 MUT): > 8 µM
IC50 (Homo sapiens, 42-MG-BA, TP53 MUT): > 8 µM
IC50 (Homo sapiens, 697, TP53 WT): 1.59 µM
IC50 (Homo sapiens, 769-P, TP53 WT): 3.01 µM
IC50 (Homo sapiens, 786-0, 786-O, TP53 MUT): > 8 µM
IC50 (Homo sapiens, 5637, TP53 MUT): > 8 µM
IC50 (Homo sapiens, 8505C, TP53 MUT): > 8 µM
